The NIST ThermoML archive (doi:10.1016/j.jct.2011.06.020)

Test: xn = mol fraction of the nth substance listed
Details: for surface tension liquid-gas: Tensiometer with plate; for viscosity / mass density: 101 kPa, Liquid; for viscosity: Capillary tube (Ostwald / Ubbelohde) method; for mass density: Vibrating tube method

CN1CCNCC1 [N-methylpiperazine] + O
Details	mass density [kg/m3]	surface tension liquid-gas [mN/m]	viscosity [mPa·s]
293.15 K, x1 = 0.1	–	47.64	–
293.15 K, x1 = 0.1998	–	43.4	–
293.15 K, x1 = 0.2994	–	38.68	–
293.15 K, x1 = 0.4073	–	35.89	–
293.15 K, x1 = 0.4983	–	34.37	–
293.15 K, x1 = 0.5934	–	33.18	–
293.15 K, x1 = 0.6979	–	32.35	–
293.15 K, x1 = 0.7994	–	31.68	–
293.15 K, x1 = 0.8978	–	31.15	–
293.15 K, x1 = 1	–	30.65	–
298.15 K, x1 = 0.0521	1001.67	–	3.324
298.15 K, x1 = 0.0725	1005.26	–	5.564
298.15 K, x1 = 0.1039	1009.54	–	10.76
298.15 K, x1 = 0.2091	1001.33	–	35.24
298.15 K, x1 = 0.3101	981.31	–	36.42
298.15 K, x1 = 0.4096	962.21	–	23.48
298.15 K, x1 = 0.5109	946.41	–	13.36
298.15 K, x1 = 0.608	933.25	–	7.957
298.15 K, x1 = 0.7065	922.31	–	4.893
298.15 K, x1 = 0.8069	913.72	–	3.383
298.15 K, x1 = 0.8819	906.76	–	2.552
298.15 K, x1 = 1	898.81	–	1.87
303.15 K, x1 = 0.0521	999.31	–	2.752
303.15 K, x1 = 0.0725	1002.36	–	4.48
303.15 K, x1 = 0.1	–	46.73	–
303.15 K, x1 = 0.1039	1005.87	–	8.223
303.15 K, x1 = 0.1998	–	42.1	–
303.15 K, x1 = 0.2091	996.94	–	25.01
303.15 K, x1 = 0.2994	–	38.07	–
303.15 K, x1 = 0.3101	976.94	–	25.74
303.15 K, x1 = 0.4073	–	35.25	–
303.15 K, x1 = 0.4096	957.88	–	17.12
303.15 K, x1 = 0.4983	–	33.82	–
303.15 K, x1 = 0.5109	942.03	–	10.17
303.15 K, x1 = 0.5934	–	32.73	–
303.15 K, x1 = 0.608	928.88	–	6.246
303.15 K, x1 = 0.6979	–	31.78	–
303.15 K, x1 = 0.7065	917.92	–	4.048
303.15 K, x1 = 0.7994	–	31.16	–
303.15 K, x1 = 0.8069	909.33	–	2.835
303.15 K, x1 = 0.8819	902.37	–	2.188
303.15 K, x1 = 0.8978	–	30.7	–
303.15 K, x1 = 1	894.43	30.34	1.618
308.15 K, x1 = 0.1	–	45.72	–
308.15 K, x1 = 0.1998	–	40.74	–
308.15 K, x1 = 0.2994	–	37.57	–
308.15 K, x1 = 0.4073	–	34.71	–
308.15 K, x1 = 0.4983	–	33.32	–
308.15 K, x1 = 0.5934	–	32.06	–
308.15 K, x1 = 0.6979	–	31.25	–
308.15 K, x1 = 0.7994	–	30.8	–
308.15 K, x1 = 0.8978	–	30.2	–
308.15 K, x1 = 1	–	29.86	–
313.15 K, x1 = 0.0521	994.17	–	1.987
313.15 K, x1 = 0.0725	996.21	–	3.048
313.15 K, x1 = 0.1	–	44.4	–
313.15 K, x1 = 0.1039	998.34	–	5.183
313.15 K, x1 = 0.1998	–	39.61	–
313.15 K, x1 = 0.2091	988.01	–	13.66
313.15 K, x1 = 0.2994	–	36.37	–
313.15 K, x1 = 0.3101	968.03	–	13.97
313.15 K, x1 = 0.4073	–	34.03	–
313.15 K, x1 = 0.4096	949.09	–	9.817
313.15 K, x1 = 0.4983	–	32.66	–
313.15 K, x1 = 0.5109	933.18	–	6.25
313.15 K, x1 = 0.5934	–	31.58	–
313.15 K, x1 = 0.608	920.04	–	4.118
313.15 K, x1 = 0.6979	–	30.76	–
313.15 K, x1 = 0.7065	909.07	–	2.846
313.15 K, x1 = 0.7994	–	30.4	–
313.15 K, x1 = 0.8069	900.47	–	2.091
313.15 K, x1 = 0.8819	893.54	–	1.673
313.15 K, x1 = 0.8978	–	29.71	–
313.15 K, x1 = 1	885.62	29.23	1.302
318.15 K, x1 = 0.1	–	43.02	–
318.15 K, x1 = 0.1998	–	38.31	–
318.15 K, x1 = 0.2994	–	35.73	–
318.15 K, x1 = 0.4073	–	33.43	–
318.15 K, x1 = 0.4983	–	32.08	–
318.15 K, x1 = 0.5934	–	30.99	–
318.15 K, x1 = 0.6979	–	30.23	–
318.15 K, x1 = 0.7994	–	29.83	–
318.15 K, x1 = 0.8978	–	29.14	–
318.15 K, x1 = 1	–	28.78	–
323.15 K, x1 = 0.1	–	41.72	–
323.15 K, x1 = 0.1998	–	37.83	–
323.15 K, x1 = 0.2994	–	34.87	–
323.15 K, x1 = 0.4073	–	32.92	–
323.15 K, x1 = 0.4983	–	31.67	–
323.15 K, x1 = 0.5934	–	30.57	–
323.15 K, x1 = 0.6979	–	29.67	–
323.15 K, x1 = 0.7994	–	29.24	–
323.15 K, x1 = 0.8978	–	28.53	–
323.15 K, x1 = 1	–	28.11	–
325.15 K, x1 = 0.0521	988.47	–	1.5
325.15 K, x1 = 0.0725	989.64	–	2.188
325.15 K, x1 = 0.1039	990.55	–	–
325.15 K, x1 = 0.2091	978.98	–	8.128
325.15 K, x1 = 0.3101	958.91	–	8.263
325.15 K, x1 = 0.4096	940.1	–	–
325.15 K, x1 = 0.5109	924.16	–	4.171
325.15 K, x1 = 0.608	911.05	–	2.876
325.15 K, x1 = 0.7065	900.09	–	2.076
325.15 K, x1 = 0.8069	891.49	–	1.607
325.15 K, x1 = 0.8819	884.6	–	1.324
325.15 K, x1 = 1	876.71	–	1.065
333.15 K, x1 = 0.0521	982.25	–	1.18
333.15 K, x1 = 0.0725	982.66	–	1.651
333.15 K, x1 = 0.1	–	39.98	–
333.15 K, x1 = 0.1039	982.5	–	2.474
333.15 K, x1 = 0.1998	–	36.47	–
333.15 K, x1 = 0.2091	969.64	–	5.188
333.15 K, x1 = 0.2994	–	33.61	–
333.15 K, x1 = 0.3101	949.58	–	5.244
333.15 K, x1 = 0.4073	–	31.68	–
333.15 K, x1 = 0.4096	930.91	–	4.021
333.15 K, x1 = 0.4983	–	30.32	–
333.15 K, x1 = 0.5109	914.98	–	2.894
333.15 K, x1 = 0.5934	–	29.76	–
333.15 K, x1 = 0.608	901.91	–	2.109
333.15 K, x1 = 0.6979	–	28.76	–
333.15 K, x1 = 0.7065	891	–	1.592
333.15 K, x1 = 0.7994	–	27.93	–
333.15 K, x1 = 0.8069	882.42	–	1.277
333.15 K, x1 = 0.8819	875.57	–	1.09
333.15 K, x1 = 0.8978	–	27.7	–
333.15 K, x1 = 1	867.73	27.17	0.9
343.15 K, x1 = 0.0521	975.55	–	0.942
343.15 K, x1 = 0.0725	975.29	–	1.281
343.15 K, x1 = 0.1039	974.18	–	1.827
343.15 K, x1 = 0.2091	960.1	–	3.514
343.15 K, x1 = 0.3101	940.04	–	3.54
343.15 K, x1 = 0.4096	921.51	–	2.81
343.15 K, x1 = 0.5109	905.65	–	2.12
343.15 K, x1 = 0.608	892.65	–	1.607
343.15 K, x1 = 0.7065	881.79	–	1.264
343.15 K, x1 = 0.8069	873.22	–	1.074
343.15 K, x1 = 0.8819	866.45	–	0.906
343.15 K, x1 = 1	858.66	–	0.768
